Laboratory results taken from paper PMC5915086 (Oncotarget, 2018).
“Also recorded” adds a separate entry of the source.

Experiments:
PRMT3 = biological target: T1, PRMT3 (Homo sapiens, UniProt O60678); assay: PRMT3 methyltransferase scintillation proximity assay; assay type: biochemical
T1 construct: 106–426 (within the); made in house
Protocol: (§4) In the scintillation proximity assay (SPA), specific amounts of enzyme and biotinylated peptide substrate were mixed with the compound and the reaction was initiated by adding SAM. IC50 values were measured at the apparent Km concentrations of the substrate and SAM. The reaction was quenched by adding an equal volume of 7.5 M guanidine hydrochloride, and the reaction product was measured by SPA using FlashPlate Plus and TopCount NXT HTS plate reader (both from Perkin Elmer Life Sciences).
(§5) The selectivity assay was performed as previously described [31]. The effect of test compounds on the methyltransferase activities of Euchromatic histone-lysine N-methyltransferase 2 (G9a), G9a-like protein (GLP), Suppressor of variegation 3-9 homolog (SUV39H)1, SUV39H2, SUV420H1, SUV420H2, SET domain (SETD)2, SETD8, SETD bifurcated 1 (SETDB1), SETD7, Mixed-lineage leukemia (MLL)1 trimeric complex, MLL3 pentameric complex, Enhancer of zeste homolog (EZH)2 trimeric complex, PRMT1, PRMT3, PRMT4, PRMT5/Methylosome protein (MEP)50 complex, PRMT6, PRMT7, PRMT8, PRMT9, PR domain zinc finger protein (PRDM)9, SET and MYND domain-containing (SMYD)2, SMYD3, and DNA methyltransferase (DNMT)1 was assessed by monitoring the incorporation of a tritium-labeled methyl group into substrates with the scintillation proximity assay [32]. […]

[1] = system: BAF155 dimethylation in U266B1 cells; assay: BAF155 dimethylation in MM cells, western blotting; assay type: cell-based, human
Protocol: (§6) The lysates were separated by SDS-polyacrylamide gel electrophoresis and transferred to a nitrocellulose membrane using an iBlot Transfer Stack and iBlot Gel Transfer Device (Thermo Fisher Scientific, Waltham, MA, USA). […] The membrane was incubated with ImmunoStar LD (Wako Pure Chemical Industries, Osaka, Japan), and signals were detected with an ImageQuant LAS-3000 imaging system (Fujifilm, Tokyo, Japan).

[2] = system: 24 protein lysine methyltransferases and DNA methyltransferases; assay: Selectivity assay against other methyltransferases; assay type: biochemical; details: for inhibition of other methyltransferases: tested at 1 and 10 μM
Protocol: The selectivity assay was performed as previously described [31]. The effect of test compounds on the methyltransferase activities of Euchromatic histone-lysine N-methyltransferase 2 (G9a), G9a-like protein (GLP), Suppressor of variegation 3-9 homolog (SUV39H)1, SUV39H2, SUV420H1, SUV420H2, SET domain (SETD)2, SETD8, SETD bifurcated 1 (SETDB1), SETD7, Mixed-lineage leukemia (MLL)1 trimeric complex, MLL3 pentameric complex, Enhancer of zeste homolog (EZH)2 trimeric complex, PRMT1, PRMT3, PRMT4, PRMT5/Methylosome protein (MEP)50 complex, PRMT6, PRMT7, PRMT8, PRMT9, PR domain zinc finger protein (PRDM)9, SET and MYND domain-containing (SMYD)2, SMYD3, and DNA methyltransferase (DNMT)1 was assessed by monitoring the incorporation of a tritium-labeled methyl group into substrates with the scintillation proximity assay [32]. Briefly, a 10-μl reaction containing ^3H-SAM and substrate at concentrations close to the apparent Km values for each enzyme was prepared. Two concentrations (1 and 10 μM) of compound were tested. The reactions were quenched with 10 μl of 7.5 M guanidine hydrochloride; 180 μl of 20 mM Tris buffer (pH 8.0) were added, and the mixture was transferred to a 96-well FlashPlate followed by incubation for 1 h. The counts per minute (CPM) was measured on a TopCount plate reader; the CPM in the absence of compound or enzyme was defined as 100% activity and background (0%), respectively, for each dataset.

NCI-H929 cells = assay: Cell cycle analysis by flow cytometry (DNA content); assay type: cell-based, human; details: for G1 cell fraction / G2-M cell fraction / S cell fraction / sub-G1 cell fraction: NCI-H929, 1 μM, 72 h
Protocol: To measure DNA content for cell cycle distribution analysis, cells were incubated with 70% ethanol/PBS (v/v) overnight. Fixed cells were stained with propidium iodide and analyzed on a FACS LSRFortessa system (BD Biosciences, Franklin Lakes, NJ, USA).

PRMT9 = biological target: T2, PRMT9 (Homo sapiens, UniProt Q6P2P2); assay: PRMT9 methyltransferase scintillation proximity assay; assay type: biochemical
T2 construct: 1–845; made in house
T2 sequence (Q6P2P2 whole entry): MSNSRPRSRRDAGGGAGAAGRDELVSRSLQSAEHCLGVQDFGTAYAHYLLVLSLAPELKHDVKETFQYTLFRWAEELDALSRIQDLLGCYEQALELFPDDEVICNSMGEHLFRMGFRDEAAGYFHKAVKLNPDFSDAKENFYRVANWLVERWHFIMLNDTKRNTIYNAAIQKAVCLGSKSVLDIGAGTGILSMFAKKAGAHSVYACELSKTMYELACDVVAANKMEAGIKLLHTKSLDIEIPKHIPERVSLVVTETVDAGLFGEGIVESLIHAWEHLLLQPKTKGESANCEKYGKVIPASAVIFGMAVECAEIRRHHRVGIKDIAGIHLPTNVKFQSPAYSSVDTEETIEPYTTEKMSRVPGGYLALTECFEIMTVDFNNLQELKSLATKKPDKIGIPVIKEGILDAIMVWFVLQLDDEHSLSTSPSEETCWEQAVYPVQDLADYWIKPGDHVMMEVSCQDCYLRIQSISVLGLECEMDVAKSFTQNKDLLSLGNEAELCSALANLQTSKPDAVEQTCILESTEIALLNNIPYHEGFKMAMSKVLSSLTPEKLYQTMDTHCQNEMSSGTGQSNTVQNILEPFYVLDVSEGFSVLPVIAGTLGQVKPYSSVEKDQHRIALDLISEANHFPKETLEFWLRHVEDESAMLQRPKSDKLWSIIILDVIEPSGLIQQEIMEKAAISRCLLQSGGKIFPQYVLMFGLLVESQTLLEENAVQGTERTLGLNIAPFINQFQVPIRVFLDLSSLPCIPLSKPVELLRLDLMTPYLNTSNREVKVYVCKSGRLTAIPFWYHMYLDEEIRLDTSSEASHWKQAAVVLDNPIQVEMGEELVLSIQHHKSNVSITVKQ
Protocol: as §4

PRMT6 = biological target: T3, PRMT6 (Homo sapiens, UniProt Q96LA8); assay: PRMT6 methyltransferase scintillation proximity assay; assay type: biochemical
T3 construct: 1–375; made in house
T3 sequence (Q96LA8 whole entry): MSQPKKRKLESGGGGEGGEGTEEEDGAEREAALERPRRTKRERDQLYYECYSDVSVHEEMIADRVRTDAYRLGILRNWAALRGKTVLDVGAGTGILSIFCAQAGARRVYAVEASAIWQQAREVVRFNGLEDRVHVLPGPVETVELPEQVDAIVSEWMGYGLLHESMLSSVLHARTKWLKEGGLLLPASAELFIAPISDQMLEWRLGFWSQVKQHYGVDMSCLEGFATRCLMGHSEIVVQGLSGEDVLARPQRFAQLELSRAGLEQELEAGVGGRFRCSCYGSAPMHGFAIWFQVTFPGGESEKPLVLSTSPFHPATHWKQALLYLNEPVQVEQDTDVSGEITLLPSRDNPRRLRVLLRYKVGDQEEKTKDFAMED
Protocol: as §4, §5

[3] = system: dimethylation of BAF155 (PRMT4 substrate); assay: BAF155 dimethylation in HEK293 cells, western blotting; assay type: cell-based, human; details: 3 days
Protocol: (§7) Graphs represent nonlinear curve fits of dimethyl-BAF155 and dimethyl-MED12 signal intensities normalized to total BAF155 or MED12, respectively. Data represent mean ± SEM of two independent experiments prepared in triplicate.
(§8) After incubation for 3 min at room temperature, sodium dodecyl sulfate (SDS) was added to a final concentration of 1%. […] Blots were blocked for 1 h in blocking buffer composed of 5% milk and 0.1% Tween 20 in phosphate-buffered saline (PBS) and then incubated overnight at 4°C in blocking buffer containing primary antibodies against MED12 (1:1000) (Abnova, Taipei, Taiwan; H00009968-A01), MED12 with asymmetrically dimethylated arginine (1:1000; gift from Dr. Mark Bedford and Cell Signaling Technology, Danvers, MA, USA), BAF155 (1:500) (Santa Cruz Biotechnology, Santa Cruz, CA, USA; sc32763), or R1064-dimethylated BAF155 (1:2000) (Millipore; ABE1339). […] The signal was detected on an Odyssey scanner (LI-COR Biosciences) at 800 and 700 nm.

[4] = system: BAF155 dimethylation in NCI-H929 cells; assay: BAF155 dimethylation in MM cells, western blotting; assay type: cell-based, human
Protocol: as §6

[5] = system: dimethylation of MED12 (PRMT4 substrate); assay: MED12 dimethylation in HEK293 cells, western blotting; assay type: cell-based, human; details: 3 days
Protocol: as §7, §8

[6] = system: BAF155 dimethylation in KMS-27 cells; assay: BAF155 dimethylation in MM cells, western blotting; assay type: cell-based, human
Protocol: as §6

KMS-28BM cells = assay: MM cell growth, CellTiter-Glo, 6 days; assay type: cell-based, human
Protocol: (§1) Red dots indicate MM cell lines. […] Data are presented as mean ± standard deviation (n = 3). IC50 values were calculated by nonlinear regression analysis of % inhibition. […] ATP concentration was calculated based on chemiluminescence values relative to the 0 nM value (control) in each cell line. PRMT4 mRNA expression levels in MM cells were determined with the Ion Ampliseq transcriptome assay and were normalized to that of glyceraldehyde 3-phosphate dehydrogenase (GAPDH) in each cell line.
(§2) Chemiluminescence was measured with a microplate reader. […] K562 cells were cultured in RPMI 10% FBS.

MM.1S cells = assay: MM cell growth, CellTiter-Glo, 6 days; assay type: cell-based, human
Protocol: as §1, §2

KMS-27 cells = assay: MM cell growth, CellTiter-Glo, 6 days; assay type: cell-based, human; details: KMS-27, 6 days
Protocol: as §1, §2

RPMI8226 cells = assay: MM cell growth, CellTiter-Glo, 6 days; assay type: cell-based, human; details: RPMI8226, 6 days
Protocol: as §1, §2

KMS-11 cells = assay: MM cell growth, CellTiter-Glo, 6 days; assay type: cell-based, human; details: KMS-11, 6 days
Protocol: as §1, §2

KMS-12PE cells = assay: MM cell growth, CellTiter-Glo, 6 days; assay type: cell-based, human
Protocol: as §1, §2

MM.1R cells = assay: MM cell growth, CellTiter-Glo, 6 days; assay type: cell-based, human
Protocol: as §1, §2

U266B1 cells = assay: MM cell growth, CellTiter-Glo, 6 days; assay type: cell-based, human; details: U266B1, 6 days
Protocol: as §1, §2

KMS-20 cells = assay: MM cell growth, CellTiter-Glo, 6 days; assay type: cell-based, human; details: KMS-20, 6 days
Protocol: as §1, §2

KMS-26 cells = assay: MM cell growth, CellTiter-Glo, 6 days; assay type: cell-based, human; details: KMS-26, 6 days
Protocol: as §1, §2

KMS-12BM cells = assay: MM cell growth, CellTiter-Glo, 6 days; assay type: cell-based, human
Protocol: as §1, §2

PRMT4 [7] = biological target: T4, PRMT4 (Homo sapiens, UniProt Q86X55); assay: Differential static light scattering (DSLS) binding; details: at 80 μM
T4 sequence (Q86X55 1-608): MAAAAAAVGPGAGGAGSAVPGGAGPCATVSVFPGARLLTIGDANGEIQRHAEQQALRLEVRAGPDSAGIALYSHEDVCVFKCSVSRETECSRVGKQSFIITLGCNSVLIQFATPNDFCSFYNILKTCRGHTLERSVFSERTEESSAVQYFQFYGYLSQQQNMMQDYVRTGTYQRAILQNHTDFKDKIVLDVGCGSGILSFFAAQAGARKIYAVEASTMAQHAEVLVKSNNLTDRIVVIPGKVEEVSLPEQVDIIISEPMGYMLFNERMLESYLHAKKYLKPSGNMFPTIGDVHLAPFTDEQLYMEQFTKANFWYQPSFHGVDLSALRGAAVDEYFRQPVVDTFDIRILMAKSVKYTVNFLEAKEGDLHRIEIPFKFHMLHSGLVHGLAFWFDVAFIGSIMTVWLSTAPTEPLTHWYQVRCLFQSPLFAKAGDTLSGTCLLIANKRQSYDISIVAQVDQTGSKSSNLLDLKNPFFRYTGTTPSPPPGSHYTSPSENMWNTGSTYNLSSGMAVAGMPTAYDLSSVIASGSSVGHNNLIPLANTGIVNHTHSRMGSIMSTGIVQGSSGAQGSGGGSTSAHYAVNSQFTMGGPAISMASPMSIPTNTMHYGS
Protocol: DSLS was performed as previously described [34] using 100 mM HEPES (pH 7.5), 150 mM NaCl, 3% DMSO, and 0.4 mg ml^−1 (6 μM) protein in a 10-μl reaction volume.

[8] = system: panel of 89 (69 solid and 20 hematologic) cancer cell lines; assay: Cell panel viability, CellTiter-Glo, 3 days; assay type: cell-based, human; details: 3 μM
Protocol: In addition, to further validate the role of PRMT4 in MM cell growth, we performed PRMT4 knockdown in NCI-H929 cells and observed PRMT4 knockdown-induced growth inhibition (Supplementary Figure 5). Thus, pharmacological inhibition of PRMT4 by small molecules may be a therapeutic option for some MM treatment.
as §1, §2

PRMT7 = biological target: T5, PRMT7 (Homo sapiens, UniProt Q9NVM4); assay: PRMT7 methyltransferase scintillation proximity assay; assay type: biochemical
T5 construct: 1–692; made in house
T5 sequence (Q9NVM4 whole entry): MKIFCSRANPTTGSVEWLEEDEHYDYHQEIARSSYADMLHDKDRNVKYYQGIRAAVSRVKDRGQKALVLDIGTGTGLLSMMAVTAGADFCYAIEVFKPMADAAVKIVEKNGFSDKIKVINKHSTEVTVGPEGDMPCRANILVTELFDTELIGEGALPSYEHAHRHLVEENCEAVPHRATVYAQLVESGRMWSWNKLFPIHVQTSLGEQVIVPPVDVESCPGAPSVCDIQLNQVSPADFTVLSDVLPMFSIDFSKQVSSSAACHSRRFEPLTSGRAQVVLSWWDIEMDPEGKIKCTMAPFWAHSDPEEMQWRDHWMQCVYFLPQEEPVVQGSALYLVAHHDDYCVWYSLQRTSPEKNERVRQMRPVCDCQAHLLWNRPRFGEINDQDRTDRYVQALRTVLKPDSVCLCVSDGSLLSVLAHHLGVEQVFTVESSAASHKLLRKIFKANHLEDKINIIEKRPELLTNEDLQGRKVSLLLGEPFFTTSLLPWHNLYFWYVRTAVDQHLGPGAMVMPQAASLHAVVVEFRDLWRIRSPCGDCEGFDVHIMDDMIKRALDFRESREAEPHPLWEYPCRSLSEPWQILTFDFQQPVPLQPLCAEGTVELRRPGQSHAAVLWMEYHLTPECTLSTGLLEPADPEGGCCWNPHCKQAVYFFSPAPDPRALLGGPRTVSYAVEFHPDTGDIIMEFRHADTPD
Protocol: as §4, §5

[9] = system: acute myeloid leukemia, colon cancer, or lung cancer cell lines; assay: Proliferation of non-MM cancer cell lines, 6 days; assay type: cell-based, human
Protocol: as §2
6 days. Relative ATP concentration was calculated based on chemiluminescence relative to the 0 nM value (control). Data are presented as
mean ± standard deviation (n = 3).
(§3) (1 picture or pasted object on this page, not shown here)

K562 cells = assay: K562 cell viability, SYTOX Blue flow cytometry; assay type: cell-based; details: 3 μM TP-064, 5 μM SGC0946, 6 days; preliminary experiments
Protocol: as §2
growth. […] The inhibitors were topped up after
3 days. After 6 days, cells were stained with SYTOX Blue dead cell stain and the number of viable cells was determined by flow cytometry.
Data are presented as mean ± SD (n = 5). The predicted additive effect was calculated as Fa + Fb × (1 − Fa), where Fa and Fb are the
as §3

PRMT8 = biological target: T6, PRMT8 (Homo sapiens, UniProt Q9NR22); assay: PRMT8 methyltransferase scintillation proximity assay; assay type: biochemical
T6 construct: 1–394; made in house
T6 sequence (Q9NR22 whole entry): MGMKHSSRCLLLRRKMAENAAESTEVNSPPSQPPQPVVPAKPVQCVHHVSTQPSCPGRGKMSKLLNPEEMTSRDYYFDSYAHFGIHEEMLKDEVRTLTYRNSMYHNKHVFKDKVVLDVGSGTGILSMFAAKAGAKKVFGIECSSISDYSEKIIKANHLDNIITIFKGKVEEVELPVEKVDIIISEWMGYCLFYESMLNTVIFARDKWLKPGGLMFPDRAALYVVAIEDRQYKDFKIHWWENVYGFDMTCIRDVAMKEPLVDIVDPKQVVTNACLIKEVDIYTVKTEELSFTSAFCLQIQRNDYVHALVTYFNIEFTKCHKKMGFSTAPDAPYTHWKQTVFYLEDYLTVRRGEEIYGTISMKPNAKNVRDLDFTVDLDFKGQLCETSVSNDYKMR
Protocol: as §4, §5

[10] = biological target: T7, PRMT5/Methylosome protein (MEP)50 complex (Homo sapiens, UniProt O14744); assay: PRMT5 methyltransferase scintillation proximity assay; assay type: biochemical
T7 construct: 1–637 (PRMT5); made in house
T7 sequence (O14744 whole entry): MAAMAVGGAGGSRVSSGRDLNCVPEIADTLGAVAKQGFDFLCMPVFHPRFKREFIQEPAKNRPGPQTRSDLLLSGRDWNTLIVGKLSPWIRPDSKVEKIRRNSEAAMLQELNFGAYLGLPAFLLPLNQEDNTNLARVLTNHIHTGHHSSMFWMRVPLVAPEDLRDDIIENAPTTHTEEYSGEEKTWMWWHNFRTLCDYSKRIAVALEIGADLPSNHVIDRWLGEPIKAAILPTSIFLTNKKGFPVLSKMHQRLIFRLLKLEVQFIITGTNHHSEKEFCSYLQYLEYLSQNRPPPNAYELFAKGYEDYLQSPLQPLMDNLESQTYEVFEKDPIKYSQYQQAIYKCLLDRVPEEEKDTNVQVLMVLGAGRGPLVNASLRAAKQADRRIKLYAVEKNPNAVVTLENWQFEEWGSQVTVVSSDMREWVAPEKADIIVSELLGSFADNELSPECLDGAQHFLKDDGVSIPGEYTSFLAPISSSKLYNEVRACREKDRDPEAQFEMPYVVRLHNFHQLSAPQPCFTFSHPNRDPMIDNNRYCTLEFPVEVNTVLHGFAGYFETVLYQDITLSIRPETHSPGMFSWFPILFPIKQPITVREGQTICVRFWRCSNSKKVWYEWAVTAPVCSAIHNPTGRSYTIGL
T7 sequence (Q9BQA1 whole entry partner): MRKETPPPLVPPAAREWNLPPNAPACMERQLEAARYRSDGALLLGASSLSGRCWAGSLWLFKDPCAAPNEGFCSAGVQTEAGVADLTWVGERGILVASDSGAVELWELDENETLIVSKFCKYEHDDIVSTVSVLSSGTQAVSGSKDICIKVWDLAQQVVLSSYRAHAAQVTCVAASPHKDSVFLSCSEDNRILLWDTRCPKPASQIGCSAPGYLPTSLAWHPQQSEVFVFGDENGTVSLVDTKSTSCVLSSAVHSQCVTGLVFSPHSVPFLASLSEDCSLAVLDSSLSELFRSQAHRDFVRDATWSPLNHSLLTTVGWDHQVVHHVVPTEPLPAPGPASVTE
Protocol: as §4, §5

PRMT4 [11] = biological target: T4, PRMT4; assay: Substrate competition assay (mechanism of action); assay type: biochemical; parameters: 1–608; made in house; details: versus SAM and substrate peptide
Protocol: The substrate competition assays were performed by measuring IC50 values at various concentrations of one substrate (e.g., peptide) and at saturating concentrations of the other (e.g., SAM) and vice versa, as previously described.

PRMT1 = biological target: T8, PRMT1 (Homo sapiens, UniProt Q99873); assay: PRMT1 methyltransferase scintillation proximity assay; assay type: biochemical
T8 construct: 30–371; made in house
T8 sequence (Q99873 30-371): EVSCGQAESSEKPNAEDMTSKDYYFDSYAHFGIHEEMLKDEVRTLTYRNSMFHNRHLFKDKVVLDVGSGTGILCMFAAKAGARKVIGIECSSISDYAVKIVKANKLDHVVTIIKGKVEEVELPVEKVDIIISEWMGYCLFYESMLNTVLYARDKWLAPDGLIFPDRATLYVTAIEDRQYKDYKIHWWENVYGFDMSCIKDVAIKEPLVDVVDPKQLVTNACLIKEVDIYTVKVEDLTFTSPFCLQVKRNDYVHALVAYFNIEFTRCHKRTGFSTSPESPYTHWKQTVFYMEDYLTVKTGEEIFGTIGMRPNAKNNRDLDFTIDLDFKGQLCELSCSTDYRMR
Protocol: as §4

PRMT4 [12] = biological target: T4, PRMT4; assay: PRMT4 methyltransferase scintillation proximity assay; assay type: biochemical; parameters: 1–608; made in house
Protocol: as §4

T1 sequence (O60678 211-531 limits assumed): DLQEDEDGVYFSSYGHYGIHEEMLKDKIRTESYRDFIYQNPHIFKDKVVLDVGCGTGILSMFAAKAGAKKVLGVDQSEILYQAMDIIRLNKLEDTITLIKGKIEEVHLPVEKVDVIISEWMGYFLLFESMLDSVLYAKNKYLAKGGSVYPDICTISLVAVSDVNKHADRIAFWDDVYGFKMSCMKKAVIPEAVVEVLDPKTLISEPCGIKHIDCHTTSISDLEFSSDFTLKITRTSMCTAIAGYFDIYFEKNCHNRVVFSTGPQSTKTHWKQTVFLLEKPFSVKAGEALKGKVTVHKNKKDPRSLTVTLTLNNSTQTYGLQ

CNCCN1CCC(c2cc(CN(C)C(=O)c3cccc(Oc4ccccc4)c3)ccn2)CC1 [TP-064, N-methyl-N-((2-(1-(2-(methylamino)ethyl)piperidin-4-yl)pyridin-4-yl)methyl)-3-phenoxybenzamide]
IC50 (PRMT3): > 10000 nM
IC50 ([1]; Homo sapiens, 72 h, U266B1, 3 days, read-out: methyl / total BAF155 IC50): 486 nM
IC50 [2]: > 10000 nM
inhibition of other methyltransferases [2]: did not inhibit
G1 cell fraction (NCI-H929 cells): 63.5%
G2-M cell fraction (NCI-H929 cells): 20.2%
S cell fraction (NCI-H929 cells): 7.89%
sub-G1 cell fraction (NCI-H929 cells): 5.73%
IC50 (PRMT9): > 10000 nM
IC50 (PRMT6): 1300 ± 400 nM
IC50 ([3]; Homo sapiens, 72 h): 340 ± 30 nM
IC50 ([4]; Homo sapiens, 72 h, NCI-H929, 3 days, read-out: methyl / total BAF155 IC50): 716 nM
IC50 ([5]; Homo sapiens, 72 h): 43 ± 10 nM
IC50 ([6]; Homo sapiens, 72 h, KMS-27, 3 days, read-out: methyl / total BAF155 IC50): 400 nM
Growth at 3 μM (%) (KMS-28BM cells): -24.1%
Growth at 3 μM (%) (MM.1S cells): -31.0%
Growth at 3 μM (%) (KMS-27 cells): -17.2%
IC50 (RPMI8226 cells; Homo sapiens, RPMI-8226, 144 h): 886 nM
Growth at 3 μM (%) (RPMI8226 cells): -58.3%
Growth at 3 μM (%) (KMS-11 cells): -17.2%
Growth at 3 μM (%) (KMS-12PE cells): -4.4%
Growth at 3 μM (%) (MM.1R cells): -37.8%
Growth at 3 μM (%) (U266B1 cells): -24.4%
Growth at 3 μM (%) (KMS-20 cells): -22.5%
Growth at 3 μM (%) (KMS-26 cells): -19.5%
Growth at 3 μM (%) (KMS-12BM cells): -8.2%
increase of aggregation temperature (Tagg), DSLS (PRMT4 [7]): about 6 °C
growth inhibition in cancer cell panel [8]: inhibited the growth of a subset of MM cell lines
IC50 (PRMT7): > 10000 nM
anti-proliferative activity [9]: did not exhibit; also recorded: no effect
cytotoxic response of K562 cells (K562 cells): weak response
IC50 (PRMT8): 8100 ± 600 nM
IC50 [10]: > 10000 nM
mode of inhibition (PRMT4 [11]): non-competitive

COCCN1CCC(c2cc(CN(C)C(=O)c3cccc(Oc4ccccc4)c3)ccn2)CC1 [TP-064N, N-((2-(1-(2-methoxyethyl)piperidin-4-yl)pyridin-4-yl)methyl)-N-methyl-3-phenoxybenzamide]
IC50 (PRMT3): > 10000 nM
effect on dimethyl-BAF155 level ([1]; U266B1, 72 h): no effect
IC50 [2]: > 10000 nM
inhibition of other methyltransferases [2]: completely inactive
effect on cell cycle (NCI-H929 cells; NCI-H929): no/little effect
G1 cell fraction (NCI-H929 cells): 53.2%
G2-M cell fraction (NCI-H929 cells): 24.1%
S cell fraction (NCI-H929 cells): 13.2%
sub-G1 cell fraction (NCI-H929 cells): 5.14%
IC50 (PRMT9): > 10000 nM
IC50 (PRMT6): > 10000 nM
inhibition of BAF155 dimethylation ([3]; up to 10 μM): did not inhibit
effect on dimethyl-BAF155 level ([4]; NCI-H929, 72 h): no effect
inhibition of MED12 dimethylation ([5]; up to 10 μM): did not inhibit
effect on dimethyl-BAF155 level ([6]; KMS-27, 72 h): no effect
IC50 (PRMT1): > 10000 nM
IC50 (PRMT7): > 10000 nM
IC50 (PRMT8): > 10000 nM
IC50 [10]: > 10000 nM
IC50 (PRMT4 [12]): 2500 ± 600 nM
